From ChEMBL document CHEMBL5137088 (J Med Chem, 2022)
pIC50: −log10 of the molar value.

Experiments:
in vitro [1] = conditions: chicken, chick embryo fibroblast cells
in vitro [2] = conditions: dog, MDCK cells
Cytochrome P450 1A2 = target: T1, Cytochrome P450 1A2 (Homo sapiens, UniProt P05177)
T1 sequence (P05177 whole entry): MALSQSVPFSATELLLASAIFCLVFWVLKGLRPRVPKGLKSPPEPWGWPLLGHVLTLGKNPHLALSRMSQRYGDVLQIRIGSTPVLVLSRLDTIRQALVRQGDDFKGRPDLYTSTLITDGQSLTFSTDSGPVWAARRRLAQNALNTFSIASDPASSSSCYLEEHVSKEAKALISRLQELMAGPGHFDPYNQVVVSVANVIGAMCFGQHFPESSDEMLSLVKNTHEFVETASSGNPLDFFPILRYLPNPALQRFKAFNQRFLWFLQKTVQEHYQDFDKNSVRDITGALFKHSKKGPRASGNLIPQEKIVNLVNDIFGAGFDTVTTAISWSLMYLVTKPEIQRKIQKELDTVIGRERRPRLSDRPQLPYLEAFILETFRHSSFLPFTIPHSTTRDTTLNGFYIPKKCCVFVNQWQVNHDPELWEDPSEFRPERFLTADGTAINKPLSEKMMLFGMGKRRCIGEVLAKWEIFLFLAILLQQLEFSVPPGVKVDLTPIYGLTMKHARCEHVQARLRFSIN

Cytochrome P450 2D6 = Cytochrome P450 2D6 (Homo sapiens, UniProt P10635)
Sequence of Cytochrome P450 2D6 (P10635 whole entry): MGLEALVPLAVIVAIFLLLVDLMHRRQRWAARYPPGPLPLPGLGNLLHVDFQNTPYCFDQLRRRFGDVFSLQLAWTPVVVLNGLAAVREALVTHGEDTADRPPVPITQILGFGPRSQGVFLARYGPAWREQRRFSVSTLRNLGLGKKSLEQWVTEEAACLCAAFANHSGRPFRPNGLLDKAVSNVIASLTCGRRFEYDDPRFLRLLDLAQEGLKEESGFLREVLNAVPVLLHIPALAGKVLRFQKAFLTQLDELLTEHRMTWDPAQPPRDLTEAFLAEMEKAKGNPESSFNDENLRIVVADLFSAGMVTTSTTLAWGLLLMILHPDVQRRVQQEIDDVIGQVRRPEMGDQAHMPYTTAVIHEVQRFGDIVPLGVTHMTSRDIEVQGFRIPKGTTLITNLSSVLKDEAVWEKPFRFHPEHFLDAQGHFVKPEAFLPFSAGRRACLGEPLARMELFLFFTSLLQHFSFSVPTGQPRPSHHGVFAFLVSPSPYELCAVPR

Cytochrome P450 2C19 = Cytochrome P450 2C19 (Homo sapiens, UniProt P33261); type: ADME, microsomes, Liver, Microsome
Sequence of Cytochrome P450 2C19 (P33261 whole entry): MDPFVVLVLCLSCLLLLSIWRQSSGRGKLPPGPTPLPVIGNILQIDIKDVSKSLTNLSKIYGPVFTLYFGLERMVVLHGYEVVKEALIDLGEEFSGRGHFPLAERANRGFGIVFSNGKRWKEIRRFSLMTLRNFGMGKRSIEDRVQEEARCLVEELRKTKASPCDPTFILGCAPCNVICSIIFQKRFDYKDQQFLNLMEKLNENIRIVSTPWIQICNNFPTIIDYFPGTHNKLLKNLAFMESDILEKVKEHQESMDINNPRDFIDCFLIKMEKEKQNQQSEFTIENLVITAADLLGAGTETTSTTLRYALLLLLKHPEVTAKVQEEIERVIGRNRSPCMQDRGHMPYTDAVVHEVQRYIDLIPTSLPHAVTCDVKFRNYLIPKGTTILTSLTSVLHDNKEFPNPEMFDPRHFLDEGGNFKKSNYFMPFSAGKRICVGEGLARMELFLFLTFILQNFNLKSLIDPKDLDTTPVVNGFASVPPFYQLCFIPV

[3] = Acute toxicity in 12 hrs fasted Kunming mouse assessed as ruffled fur at 1000 mg/kg, po measured for 1 week; type: organism-based; conditions: in vivo, 168 h, time 1 weeks
in vitro [4] = conditions: human, human liver (fraction not stated)
Cytochrome P450 3A4 = Cytochrome P450 3A4 (Homo sapiens, UniProt P08684); type: ADME, microsomes, Liver, Microsome
Sequence of Cytochrome P450 3A4 (P08684 whole entry): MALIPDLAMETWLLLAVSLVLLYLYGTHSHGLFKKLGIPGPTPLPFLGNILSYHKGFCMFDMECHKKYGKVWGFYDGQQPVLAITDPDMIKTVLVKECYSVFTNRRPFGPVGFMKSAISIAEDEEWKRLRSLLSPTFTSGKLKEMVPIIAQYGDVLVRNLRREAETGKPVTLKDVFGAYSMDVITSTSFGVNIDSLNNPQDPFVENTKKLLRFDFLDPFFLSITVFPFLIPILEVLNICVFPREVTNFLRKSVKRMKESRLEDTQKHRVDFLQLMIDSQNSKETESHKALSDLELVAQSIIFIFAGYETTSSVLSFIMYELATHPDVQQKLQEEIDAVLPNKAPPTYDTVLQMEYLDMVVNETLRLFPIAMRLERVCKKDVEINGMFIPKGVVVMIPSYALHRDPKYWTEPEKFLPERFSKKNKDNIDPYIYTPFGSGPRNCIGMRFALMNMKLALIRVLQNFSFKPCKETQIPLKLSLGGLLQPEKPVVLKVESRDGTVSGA

[5] = Half-life in Sprague-Dawley rat at 20 mg/kg, po measured upto 12 hrs by LC-MS/MS analysis; type: ADME, organism-based; conditions: in vivo
[6] = Subacute toxicity in 12 hrs fasted Kunming mouse assessed as animal death at 50 mg/kg, iv administered once every two days for 2 weeks; type: organism-based; conditions: in vivo
[7] = Volume of distribution at steady state in Sprague-Dawley rat at 2 mg/kg, iv measured upto 12 hrs by LC-MS/MS analysis; type: ADME, organism-based; conditions: in vivo, read-out: Vdss
in vitro [8] = conditions: human, liver microsomes
[9] = Subacute toxicity in 12 hrs fasted Kunming mouse assessed as poisoning symptom at 50 mg/kg, po administered once every two days for 2 weeks; type: organism-based; conditions: in vivo
in vitro [10] = conditions: human, human liver (fraction not stated); remark: listed apart in the source
Cytochrome P450 2C9 = Cytochrome P450 2C9 (Homo sapiens, UniProt P11712); type: ADME, microsomes, Liver, Microsome
Sequence of Cytochrome P450 2C9 (P11712 whole entry): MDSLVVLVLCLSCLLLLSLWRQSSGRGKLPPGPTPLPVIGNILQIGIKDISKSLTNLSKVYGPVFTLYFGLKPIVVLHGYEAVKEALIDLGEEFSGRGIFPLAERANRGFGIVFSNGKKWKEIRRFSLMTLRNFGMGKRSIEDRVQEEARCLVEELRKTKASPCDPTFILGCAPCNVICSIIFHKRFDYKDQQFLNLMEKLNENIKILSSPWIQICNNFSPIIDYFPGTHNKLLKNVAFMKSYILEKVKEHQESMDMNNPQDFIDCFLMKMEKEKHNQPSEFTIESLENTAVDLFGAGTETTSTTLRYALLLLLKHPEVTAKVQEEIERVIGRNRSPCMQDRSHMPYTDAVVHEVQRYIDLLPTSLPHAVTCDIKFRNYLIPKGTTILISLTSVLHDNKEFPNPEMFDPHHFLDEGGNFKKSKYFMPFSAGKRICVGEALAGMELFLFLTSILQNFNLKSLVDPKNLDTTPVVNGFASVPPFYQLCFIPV

[11] = Clearance in Sprague-Dawley rat at 2 mg/kg, iv measured upto 12 hrs by LC-MS/MS analysis; type: ADME, organism-based; conditions: in vivo
[12] = Subacute toxicity in 12 hrs fasted Kunming mouse assessed as increase in body weight at 50 mg/kg, po administered once every two days for 2 weeks relative to control; type: organism-based; conditions: in vivo
[13] = Oral bioavailability in Sprague-Dawley rat at 20 mg/kg measured upto 12 hrs by LC-MS/MS analysis; type: ADME, organism-based; conditions: in vivo
[14] = Tmax in Sprague-Dawley rat at 20 mg/kg, po measured upto 12 hrs by LC-MS/MS analysis; type: ADME, organism-based; conditions: in vivo
[15] = Half-life in Sprague-Dawley rat at 2 mg/kg, iv measured upto 12 hrs by LC-MS/MS analysis; type: ADME, organism-based; conditions: in vivo
[16] = Tmax in Sprague-Dawley rat at 2 mg/kg, iv measured upto 12 hrs by LC-MS/MS analysis; type: ADME, organism-based; conditions: in vivo
[17] = Subacute toxicity in 12 hrs fasted Kunming mouse assessed as side effect at 50 mg/kg, iv administered once every two days for 2 weeks; type: organism-based; conditions: in vivo
[18] = Acute toxicity in 12 hrs fasted Kunming mouse assessed as clonic convulsion at 1000 mg/kg, po measured for 1 week; type: organism-based; conditions: in vivo, 168 h, time 1 weeks
[19] = Acute toxicity in 12 hrs fasted Kunming mouse assessed as animal death at 1000 mg/kg, po measured for 1 week; type: organism-based; conditions: in vivo, 168 h, time 1 weeks
[20] = Acute toxicity in 12 hrs fasted Kunming mouse assessed as lethargy at 1000 mg/kg, po measured for 1 week; type: organism-based; conditions: in vivo, 168 h, time 1 weeks
in vitro [21] = conditions: human, Caco-2
[22] = Cmax in Sprague-Dawley rat at 2 mg/kg, iv measured upto 12 hrs by LC-MS/MS analysis; type: ADME, organism-based; parameters: time < 12 hrs, dose 2 mg/kg, route iv; conditions: in vivo
[23] = Cmax in Sprague-Dawley rat at 20 mg/kg, po measured upto 12 hrs by LC-MS/MS analysis; type: ADME, organism-based; parameters: time < 12 hrs, dose 20 mg/kg, route po; conditions: in vivo
[24] = Subacute toxicity in 12 hrs fasted Kunming mouse assessed as animal death at 50 mg/kg, po administered once every two days for 2 weeks; type: organism-based; conditions: in vivo

Row | SMILES | CC50 at 48 h (in vitro [1]) [µM] | CC50 at 48 h (in vitro [2]) [µM] | pIC50 (Cytochrome P450 1A2) | pIC50 (Cytochrome P450 2D6) | pIC50 (Cytochrome P450 2C19) | CLint scaled at 2 h (in vitro [4]) [mL/min/kg] | pIC50 (Cytochrome P450 3A4) | half-life at 2 h (in vitro [8]) [min] | remaining at 60 min (in vitro [10]) [%] | pIC50 (Cytochrome P450 2C9) | further results
1 | CCC(CC)O[C@@H]1C=C(C(=O)O)C[C@H](NCc2ccc(-c3cccs3)c(Cl)c2)[C@H]1NC(C)=O | > 250 | > 250 |  |  |  |  |  |  |  |  | 
2 | CCC(CC)O[C@@H]1C=C(C(=O)O)C[C@H](NCc2ccc(-c3cccs3)cc2OC)[C@H]1NC(C)=O | > 250 | > 250 | 4.68 | < 4.00 | 4.52 | 10.4 | 4.06 | 120 | 73.8 | 4.38 | Activity [3]: Non-Toxic; half-life [5]: 20.9 min; Activity [6]: Non-Toxic; Vd [7]: 0.191 L/kg; Activity [9]: Non-Toxic; clearance [11]: 17.7 mL/min/kg; Activity [12]: Non-Toxic; bioavailability [13]: 1.5%; Tmax [14]: 20 min; half-life [15]: 12.8 min; Tmax [16]: 4.98 min; Activity [17]: Non-Toxic; Activity [18]: Non-Toxic; Activity [19]: Non-Toxic; Activity [20]: Non-Toxic; Papp A→B at 2 h, 20 µM (in vitro [21]): 0.0191 ×10⁻⁶ cm/s; Cmax [22]: 6870 ng/mL; Cmax [23]: 511 ng/mL; Activity [24]: Non-Toxic
3 | CCC(CC)O[C@@H]1C=C(C(=O)O)C[C@H](NCc2c(C)cc(-c3cccs3)cc2C)[C@H]1NC(C)=O | > 250 | > 250 |  |  |  |  |  |  |  |  | 
4 | CCC(CC)O[C@@H]1C=C(C(=O)O)C[C@H](NCc2ccc(-c3ccsc3)cc2C)[C@H]1NC(C)=O | > 250 | > 250 |  |  |  |  |  |  |  |  | 
5 | CCC(CC)O[C@@H]1C=C(C(=O)O)C[C@H](NCc2c(C)cc(-c3ccsc3)cc2C)[C@H]1NC(C)=O | > 250 | > 250 |  |  |  |  |  |  |  |  | 
6 | CCC(CC)O[C@@H]1C=C(C(=O)O)C[C@H](NCc2ccc(-c3ccsc3)cc2O)[C@H]1NC(C)=O | > 250 | > 250 |  |  |  | 17.2 |  | 44.5 | 59 |  | 
7 | CCC(CC)O[C@@H]1C=C(C(=O)O)C[C@H](NCc2ccc(-c3ccsc3)cc2OC)[C@H]1NC(C)=O | > 250 | > 250 | 4.54 | < 4.00 | 4.32 | < 8.6 | < 4.00 | > 145 | 79.3 | 4.33 | Activity [3]: Non-Toxic; half-life [5]: 50.2 min; Activity [6]: Non-Toxic; Vd [7]: 0.179 L/kg; Activity [9]: Non-Toxic; clearance [11]: 17.2 mL/min/kg; Activity [12]: Non-Toxic; bioavailability [13]: 1.58%; Tmax [14]: 30 min; half-life [15]: 12.8 min; Tmax [16]: 4.98 min; Activity [17]: Non-Toxic; Activity [18]: Non-Toxic; Activity [19]: Non-Toxic; Activity [20]: Non-Toxic; Papp A→B at 2 h, 20 µM (in vitro [21]): 0.0262 ×10⁻⁶ cm/s; Cmax [22]: 7200 ng/mL; Cmax [23]: 491 ng/mL; Activity [24]: Non-Toxic
8 | CCC(CC)O[C@@H]1C=C(C(=O)O)C[C@H](NCc2ccc(-c3ccsc3)cc2Cl)[C@H]1NC(C)=O | > 250 | > 250 | 4.84 | < 4.00 | 4.44 | < 8.6 | 4.14 | > 145 | 78.1 | 4.50 | 
9 | CCC(CC)O[C@@H]1C=C(C(=O)O)C[C@H](NCc2ccc(-c3cccs3)cc2C)[C@H]1NC(C)=O | > 250 | > 250 | 4.71 | < 4.00 | 4.41 | 10.2 | < 4.00 | 123 | 71.7 | 4.36 | 
10 | CCC(CC)O[C@@H]1C=C(C(=O)O)C[C@H](NCc2ccc(-c3cccs3)cc2Cl)[C@H]1NC(C)=O | > 250 | > 250 | 4.90 | < 4.00 | 4.41 | < 8.6 | < 4.00 | > 145 | 76.1 | 4.06 | 
11 | O=C(O)Cc1ccccc1Nc1c(Cl)cccc1Cl [DICLOFENAC] |  |  |  |  |  | 225 |  | 5.5 |  |  | 
12 | CC(C)(C)NCC(O)COc1cccc2c1CC(O)C(O)C2 (stereo unspecified) [NADOLOL] |  |  |  |  |  |  |  |  |  |  | Papp A→B at 2 h, 20 µM (in vitro [21]): 0.0491 ×10⁻⁶ cm/s
13 | CCC(CC)O[C@@H]1C=C(C(=O)O)C[C@H](N)[C@H]1NC(C)=O [OSELTAMIVIR CARBOXYLATE] | > 250 | > 250 |  |  |  | 28 |  | 72.4 | 40.6 |  | 
14 | C[C@]12CC[C@H]3[C@@H](CCC4=CC(=O)CC[C@@]43C)[C@@H]1CC[C@@H]2O [TESTOSTERONE] |  |  |  |  |  | 89.7 |  |  | 5.1 |  | 
